From the NIST ThermoML archive (doi:10.1021/je060271a)

Settings: 303.15 K, Liquid, Vibrating tube method

CCCCCCCC(=O)OCC(COC(=O)CCCCCCC)(COC(=O)CCCCCCC)COC(=O)CCCCCCC [pentaerythritol tetraoctanoate]
Settings | mass density [kg/m3]
28411 kPa | 972
28450 kPa | 971.9
28485 kPa | 972
28563 kPa | 972.1
28635 kPa | 972
28718 kPa | 972.1
28794 kPa | 972.2
28833 kPa | 972.2
28858 kPa | 972
28881 kPa | 972.2
28903 kPa | 972.2
28932 kPa | 972.2
28954 kPa | 972.3
28977 kPa | 972.2
29007 kPa | 972.1
29030 kPa | 972.2
29057 kPa | 972.3
29081 kPa | 972.3
29107 kPa | 972.3
29129 kPa | 972.3
29159 kPa | 972.2
29182 kPa | 972.4
29208 kPa | 972.2
29237 kPa | 972.4
29263 kPa | 971.8
29291 kPa | 972.4
29316 kPa | 972.4
29341 kPa | 972.6
29366 kPa | 972.4
29397 kPa | 972.5
29422 kPa | 972.5
29447 kPa | 972.5
29476 kPa | 972.5
29501 kPa | 972.6
29527 kPa | 972.6
29551 kPa | 972.5
29579 kPa | 972.5
29610 kPa | 972.6
29627 kPa | 972.6
29648 kPa | 972.6
29671 kPa | 972.6
29696 kPa | 972.7
29725 kPa | 972.7
29750 kPa | 972.6
29775 kPa | 972.6
29807 kPa | 972.8
29827 kPa | 972.7
29857 kPa | 972.7
29882 kPa | 972.8
29912 kPa | 972.7
29937 kPa | 972.6
29963 kPa | 972.7
29993 kPa | 972.9
30018 kPa | 972.7
30044 kPa | 972.8
30069 kPa | 972.8
30100 kPa | 972.9
30125 kPa | 972.8
30151 kPa | 972.8
30183 kPa | 972.9
30209 kPa | 973
30234 kPa | 973
30260 kPa | 973
30291 kPa | 972.9
30317 kPa | 973
30343 kPa | 972.9
30374 kPa | 973
30400 kPa | 972.9
30431 kPa | 973.1
30457 kPa | 973
30483 kPa | 973.1
30510 kPa | 973.1
30541 kPa | 973
30568 kPa | 972.9
30595 kPa | 973.1
30626 kPa | 973.2
30652 kPa | 973.1
30685 kPa | 973.2
30711 kPa | 973.2
30738 kPa | 973.3
30765 kPa | 973.1
30797 kPa | 973.2
30824 kPa | 973.2
30852 kPa | 973.1
30884 kPa | 973.2
30911 kPa | 973.4
30938 kPa | 973.2
30971 kPa | 973.2
30998 kPa | 973.3
31025 kPa | 973.3
31057 kPa | 973.4
31085 kPa | 973.5
31113 kPa | 973.5
31145 kPa | 973.5
31172 kPa | 973.6
31206 kPa | 973.4
31234 kPa | 973.5
31261 kPa | 973.5
31290 kPa | 973.5
31323 kPa | 973.5
31351 kPa | 973.5
31380 kPa | 973.6
31413 kPa | 973.5
31442 kPa | 973.6
31469 kPa | 973.7
31503 kPa | 973.6
31532 kPa | 973.7
31560 kPa | 973.7
31589 kPa | 973.6
31624 kPa | 973.7
31653 kPa | 973.6
31681 kPa | 973.8
31715 kPa | 973.8
31744 kPa | 973.7
31773 kPa | 973.7
31808 kPa | 973.8
31836 kPa | 973.7
31865 kPa | 973.8
31900 kPa | 973.8
31929 kPa | 973.8
31958 kPa | 973.8
31994 kPa | 973.8
32025 kPa | 973.9
32055 kPa | 973.9
32084 kPa | 973.8
32120 kPa | 973.9
32150 kPa | 974
32179 kPa | 973.9
32215 kPa | 973.9
32244 kPa | 974
32274 kPa | 974
32311 kPa | 974
32340 kPa | 974
32370 kPa | 974.1
32407 kPa | 974
32432 kPa | 974.1
32469 kPa | 974.1
32499 kPa | 974.2
32535 kPa | 974.2
32566 kPa | 974.2
32596 kPa | 974.2
32626 kPa | 974.2
32663 kPa | 974.2
32693 kPa | 974.1
32730 kPa | 974.3
32761 kPa | 974.3
32792 kPa | 974.3
32829 kPa | 974.3
